Data reported in ChEMBL document CHEMBL1155966, “Efficient synthesis of (+/-)-parasitenone, a novel inhibitor of NF-kappaB” (Bioorg Med Chem Lett, 2009).
Active and inactive are the calls of the source. The calls are words filed in the database; no cut-off is given here.

What was measured:
RAW264.7 [1] = experiment: Antiinflammatory activity in mouse RAW264.7 cells assessed as inhibition of LPS-stimulated nitric oxide production at 10 ug/ml treated for 1 hr before LPS challenge measured after 24 hrs by Griess reagent method; type: functional, cell-based
RAW264.7 [2] = experiment: Inhibition of NF-kappaB transcriptional activity in LPS-stimulated mouse RAW264.7 cells treated for 1 hr before LPS challenge measured after 6 hrs by luciferase reporter gene assay; type: cell-based
[3] = system: Radical scavenging activity; experiment: Antioxidant activity assessed as DPPH radical scavenging activity; type: functional
[4] = Antioxidant activity assessed as peroxynitrite radical scavenging activity; type: functional
RAW264.7 [5] = experiment: Cytotoxicity against mouse RAW264.7 cells assessed as reduction of cell viability at 30 ug/ml after 48 hrs by trypan blue exclusion assay; type: cell-based; settings: raw264.7, 48 h
RAW264.7 [6] = experiment: Growth inhibition of mouse RAW264.7 cells at 10 ug/ml after 48 hrs by trypan blue exclusion assay; type: cell-based; settings: raw264.7, 48 h
RAW264.7 [7] = experiment: Antiinflammatory activity in mouse RAW264.7 cells assessed as inhibition of LPS-stimulated nitric oxide production treated for 1 hr before LPS challenge measured after 24 hrs by Griess reagent method; type: functional, cell-based
RAW264.7 [8] = experiment: Antiinflammatory activity in mouse RAW264.7 cells assessed as inhibition of LPS-stimulated iNOS expression treated for 1 hr before LPS challenge measured after 24 hrs by immunoblotting; type: functional, cell-based

| SMILES | Activity (RAW264.7 [1]) | Activity (RAW264.7 [2]) | IC50 [3] | IC50 [4] | Activity (RAW264.7 [5]) | Activity (RAW264.7 [6]) | Activity (RAW264.7 [7]) | Activity (RAW264.7 [8]) |
| --- | --- | --- | --- | --- | --- | --- | --- | --- |
| O=C(O)c1ccccc1O | inactive |  |  |  |  |  |  |  |
| O=C(NC1=CC(=O)[C@H]2O[C@H]2[C@H]1O)c1ccccc1O [DEHYDROXYMETHYLEPOXYQUINOMICIN] |  | Active | 57 µM | 52.6 µM |  |  |  |  |
| O=C1C=C(CO)[C@H](O)[C@@H]2O[C@H]12 [PARASITENONE] | Active | Active |  |  | Active | Active | Dose-dependent effect | Dose-dependent effect |
